Test results from PubChem BioAssay AID1241 (SRMLSC, 2008).

Test: NF-kB promoter reporter activators, neuronal cells, dose response, cell-based, SH-SY5Y, luciferase (AID 1241)
Details: fold induction

| SMILES | EC50 |
| --- | --- |
| CC(C)(C)C(=O)Nc1nc(-c2ccc3c(c2)OCO3)cs1 | 2660 nM |
| O=S1(=O)N=C(Nc2nc3c(s2)CCCC3)c2ccccc21 | 21800 nM |
| CC(C)Oc1cc(O)c2c(=O)c(-c3ccc(O)cc3)coc2c1 | 4520 nM |
| Cc1cc(C(=O)Nc2nc3c(s2)CCCC3)cs1 | 1630 nM |
| Nc1ccc2nc(SCc3cccc(F)c3)sc2c1 | 3680 nM |
| N/C(=N\N=C\c1ccc2c(c1)OCO2)c1nonc1N | 277 nM |
| COC(=O)c1sc2nc3c(cc2c1N)CCCC3 | 4060 nM |
| CN(C)c1ccc(C(=O)/C=C/c2ccco2)cc1 | 1960 nM |
| COc1cc2c(cc1NC(=O)C1CCCO1)oc1ccccc12 (stereo unspecified) | 5780 nM |
| O=C(Nc1ccc2c(c1)CCC2)c1cccs1 | 6510 nM |
| CC1CCN(C(=O)c2cc(-c3ccccc3O)on2)CC1 | 8790 nM |
| CC(=O)CSc1nc2cc3c(cc2cc1C#N)OCCO3 | 104 nM |
| CCOc1ccc2cc(C#N)c(SCC(=O)OC)nc2c1 | 14500 nM |
| Clc1cccc(Cl)c1/C=C/c1nc2ccccc2[nH]1 | 1190 nM |
| O=C(COc1ccc2ccccc2c1)Nc1nccs1 | 776 nM |
| Nc1ccc(-c2nc3cc(N)ccc3s2)cc1 | 1100 nM |
| COc1cccc(-c2cc(C(=O)N3CCCCCC3)no2)c1 | 1990 nM |
| Fc1ccccc1N1CCN(c2cnc3ccccc3n2)CC1 | 3330 nM |
| Fc1ccc(-c2cn3cc(C(F)(F)F)cc(Cl)c3n2)cc1 | 4450 nM |
| Cc1ccc(-c2nc3ccc([N+](=O)[O-])cc3[nH]2)cc1 | 577 nM |

| SMILES | EC50 |
| --- | --- |
| COc1ccc2c(c1)CC/C(=C/c1ccco1)C2=O | 1730 nM |
| CCOC(=O)c1sc2nc3c(cc2c1N)COC(C)(CC)C3 (stereo unspecified) | 1450 nM |
| N/C(=N\OC(=O)c1ccc(Cl)cc1Cl)c1cccnc1 | 2100 nM |
| c1ccc(CSCc2cn3ccsc3n2)cc1 | 12600 nM |
| Cc1ccc2oc(-c3cccc(N)c3)nc2c1 | 660 nM |
| O=C1/C(=C\c2ccco2)CCC/C1=C\c1ccco1 | 5000 nM |
| Cc1c(C(=O)Nc2nc3ccccc3[nH]2)oc2ccccc12 | 1380 nM |
| CCCCCCCOc1ccc(OC(=O)c2ccncc2)cc1 | 107 nM |
| Cc1ccc(NC(=O)c2noc3c2CCC3)cc1C | 3120 nM |
| COC(=O)CSc1nc2cc(C)ccc2cc1C#N | 6530 nM |
| Clc1ccccc1OCc1nc(-c2ccccn2)no1 | 2100 nM |
| Cc1nnc(SCc2cnc(-c3ccc(C(C)C)cc3)s2)n1C | 4570 nM |
| COc1ccc(C2CC(c3c(O)cc(C)oc3=O)=NCCS2)c(OC)c1 (stereo unspecified) | 2330 nM |
| CC(C)Oc1cccc(C(=O)Nc2ccc(Br)cc2F)c1 | 2460 nM |
| O=C(N/N=C/c1cccc(F)c1)c1csc2c1CCCC2 | 21900 nM |
| Cc1ccc(/C=C/c2nc3ccccc3[nH]2)o1 | 2060 nM |
| Fc1ccccc1SCc1nnc(-c2ccccc2Br)o1 | 818 nM |
| Cc1ccccc1Nc1nc(N)c2ccccc2n1 | 1990 nM |
| O=C(Nc1ccc2c(c1)OCO2)c1ccc(Br)s1 | 4220 nM |
| C=CCNc1ncnc2c1cnn2-c1ccc(Cl)cc1 | 1820 nM |

| SMILES | EC50 |
| --- | --- |
| Cc1ccc2nc3cc([N+](=O)[O-])cc([N+](=O)[O-])c3cc2c1 | 1190 nM |
| N#C/C(=C/c1ccco1)c1nc2ccccc2s1 | 1970 nM |
| CC(C)c1cc(C(=O)Nc2cccc(Cl)c2)no1 | 2420 nM |
| Cc1csc(NC(=O)c2ccc(C)c([N+](=O)[O-])c2)n1 | 2120 nM |
| Cc1ccc(NC(=O)c2cc3c(s2)CCCC3)cc1 | 10400 nM |
| COCC(=O)Nc1nnc(-c2ccc(C(C)(C)C)cc2)s1 | 11000 nM |
| Cc1nc(N)sc1N=Nc1ccc(Br)cc1 | 7000 nM |
| O=C(COc1ccccc1Cl)Nc1ccc(Cl)cn1 | 15400 nM |
| Cc1cccn2cc(-c3ccc(F)cc3)nc12 | 1860 nM |
| Cn1c(C(=O)Nc2ccc3c(c2)OCCO3)cc2sccc21 | 1170 nM |
| CCCCc1ccc(-c2ccc(Br)cc2)nc1 | 16300 nM |
| Clc1ccc(Nc2nc(-c3cccs3)cs2)nc1 | 686 nM |
| COC(=O)CSc1nc(-c2cccs2)ccc1C#N | 5620 nM |
| O=[N+]([O-])c1ccccc1OCc1nc(-c2cccs2)no1 | 1720 nM |
| Nc1cccn2c(-c3ccc(Cl)cc3)cnc12 | 3630 nM |
| O=C(CSc1cccc[n+]1[O-])c1cc(Cl)ccc1Cl | 1950 nM |
| Cc1ccc(C(=O)c2cc([N+](=O)[O-])ccc2N2CCOCC2)c(C)c1 | 3030 nM |
| CCOC(=O)c1sc2nc(-c3cccnc3)ccc2c1N | 1350 nM |

Now from value to compound:

| EC50 | SMILES |
| --- | --- |
| 27400 nM | c1ccc(CCNc2ncnc3c2cnn3-c2ccccc2)cc1 |
| 319 nM | Fc1ccccc1/C=C/c1ccc2ccccc2n1 |
| 889 nM | COc1ccc(N=C(C)C2=C(O)c3ccccc3C2=O)cc1 |
| 6410 nM | COc1ccc(C(=O)N=c2sc3ccccc3n2C)cc1 |
| 7390 nM | CCN(CC)c1ccc(NC(=O)c2ccccc2F)cc1 |
| 5810 nM | O=C(Nc1ccccc1)c1ccc2ccccc2n1 |
| 2020 nM | Nc1ccc(Nc2nc(-c3cc4ccccc4oc3=O)cs2)cc1 |
| 3990 nM | Oc1c(C(Nc2ccccn2)c2ccccn2)ccc2cccnc12 (stereo unspecified) |
| 1140 nM | O=C(CCS(=O)(=O)c1ccccc1)Nc1ccc(-c2nc3ccccc3s2)cc1 |
| 5890 nM | Oc1ccc(-c2nnc(-c3ccc(O)cc3)nn2)cc1 |
| 958 nM | COc1ccc(NC(=O)c2cc3ccccn3n2)cc1 |
| 2540 nM | CCc1ccc(C(=O)COC(=O)c2n[nH]c3ccccc23)cc1 |
| 10900 nM | COc1cccc(-c2nc3ccccc3s2)c1 |
| 2960 nM | Cc1ccc(NC(=O)/C(Cl)=C/c2ccccc2)cc1C |
| 5530 nM | CC(=O)c1sc(N/N=C\c2ccccc2O)nc1C |
| 3840 nM | CSc1ccc(C(=O)/C=C/c2ccc(N)cc2)cc1 |
| 3050 nM | COc1cc(SC)ccc1C(=O)Nc1ccc(C)cc1 |
| 1230 nM | O=C(Nc1nc2ccccc2[nH]1)c1cc2ccccc2o1 |
| 1410 nM | CCCCCc1ccc(-c2ccc(C(=O)O)cc2)nc1 |
| 1380 nM | Nc1nc(Nc2ccccc2)nc2ccccc12 |
| 10000 nM | Cc1cc(N)n2nc(-c3ccccc3)cc2n1 |
| 2230 nM | O=C(Nc1ccc(Cl)cc1)C1=Cc2ccccc2OC1 |
| 5700 nM | CC(C)CC(=O)Nc1ccc2nn(-c3ccccc3)nc2c1 |

| EC50 | SMILES |
| --- | --- |
| 1040 nM | O=C(/C=C/c1ccco1)N1CCc2ccccc21 |
| 986 nM | COc1ccc(C(=O)/C=C/Nc2cccc(O)c2)cc1 |
| 341 nM | COc1ccc(/C=N/Nc2cc(OC)ncn2)cc1 |
| 1640 nM | Cc1occc1C(=O)N/N=C/C(Br)=C/c1ccccc1 |
| 1320 nM | COc1ccc2nc(-c3ccccc3)[nH]c2c1 |
| 21900 nM | O=C(Nc1ccccc1O)c1ccc(NS(=O)(=O)c2cccc3cccnc23)cc1 |
| 3880 nM | Cc1ccc(NC(=O)COc2ccccc2C=O)cc1Cl |
| 1240 nM | Oc1ccccc1-c1cc(-c2ccccc2Cl)[nH]n1 |
| 698 nM | Fc1ccc(Nc2ccc3ccccc3n2)c(F)c1 |
| 660 nM | Cc1ccc2nc(-c3ccc(NC(=O)COC(=O)c4ccc(=O)[nH]c4)cc3)sc2c1 |
| 1060 nM | CC(=O)Nc1ccc2oc(-c3ccccc3Br)nc2c1 |
| 5560 nM | Oc1c(-c2cc(-c3ccco3)[nH]n2)ccc2ccccc12 |
| 8260 nM | Cc1ccsc1/C=N/Nc1nc2ccccc2[nH]1 |
| 17300 nM | Cc1cc(NC(=O)c2ccccc2)sc1C |
| 925 nM | Cc1ccc(-c2nc(-c3ccccc3)no2)cc1 |
| 3200 nM | O=[N+]([O-])c1cc(Cl)ccc1-c1nc(-c2ccccc2)no1 |
| 5300 nM | Cc1ccc(NC(=O)N2CCC(c3ccccc3)C2)cc1C (stereo unspecified) |
| 9080 nM | Cc1ccc(C(=O)C(C)OC(=O)c2ccccc2[N+](=O)[O-])cc1 (stereo unspecified) |
| 11100 nM | COc1ccc2nc(Nc3ccccc3)sc2c1 |
| 3000 nM | CCOC(=O)c1nn(-c2ccc(Br)cc2)cc1C(=O)c1cccc2ccccc12 |
| 1610 nM | c1ccc(N2CCN(c3cnc4ccccc4n3)CC2)cc1 |
| 1780 nM | Oc1ccccc1-c1cc(-c2ccccc2)no1 |
| 1010 nM | C/C(=N\Nc1cccc2cccnc12)c1ccccc1O |

| EC50 | SMILES |
| --- | --- |
| 968 nM | COc1ccc(-c2cc(-c3ccccc3O)[nH]n2)cc1 |
| 1250 nM | O=C(c1ccccc1)c1cnc(-c2ccc(Cl)cc2)s1 |
| 17200 nM | O=C(Nc1ccccn1)c1ccc2ccccc2n1 |
| 2570 nM | O=C(CCCc1ccccc1)N1CCc2ccccc21 |
| 1790 nM | O=C(O)c1cccc(N/N=C/c2ccc(-c3ccccc3)cc2)c1 |
| 96 nM | O=C(/C=C\Nc1ccccc1Br)c1ccc2c(c1)OCO2 |
| 752 nM | COc1ccc(Nc2nc(-c3ccccc3)cs2)cc1 |
| 4310 nM | CC(=O)c1ccc(NC(=O)/C(Cl)=C/c2ccccc2)cc1 |
| 868 nM | c1ccc(-c2cnc(-c3ccccc3)nc2)cc1 |
| 12100 nM | N#C/C(=C\c1ccc(OCc2ccc(C(=O)O)cc2)cc1)C(=O)N1CCOCC1 |
| 2670 nM | CC(=O)Nc1cccc(-c2csc(Nc3ccccn3)n2)c1 |
| 10400 nM | Cc1ccnc(NC(=O)/C=C/c2ccccc2Cl)c1 |
| 559 nM | Cc1ccc(C(=O)/C=C/Nc2cccc(O)c2)cc1 |
| 7040 nM | O=C(Nc1ccc2sc3ccccc3c(=O)c2c1)c1ccccc1Cl |
| 9650 nM | Fc1cccc(C2NN=C(c3ccccc3)S2)c1 (stereo unspecified) |
| 1580 nM | CCn1c(/C=C/c2ccccc2)nc2ccccc21 |
| 4870 nM | COc1ccc(Cn2c(/C=C/c3ccccc3)nc3ccccc32)cc1 |
| 3910 nM | O=C(/C=C/Nc1ccc(F)c(F)c1)c1ccc(Br)cc1 |
| 1700 nM | C(=N\Nc1nc(-c2ccccc2)cs1)/c1ccco1 |
| 1860 nM | Clc1ccccc1Nc1nc(-c2cccnc2)cs1 |
| 9750 nM | Cc1nn(-c2nc3ccccc3s2)c(N)c1-c1ccccc1 |
| 8350 nM | c1ccc(OCCSc2nnnn2-c2ccccc2)cc1 |
